This is an account of results in article PMC10574351, “First-Row Transition Metal Complexes Incorporating the 2-(2′-pyridyl)quinoxaline Ligand (pqx), as Potent Inflammatory Mediators: Cytotoxic Properties and Biological Activities against the Platelet-Activating Factor (PAF) and Thrombin” (Molecules, 2023).

For test [1], the system named is PAF-induced aggregation in washed rabbit platelets (WRPs). As to conditions: cited from earlier work.
Test [2] relates to thrombin-induced aggregation in washed rabbit platelets (WRPs). The experiment in a line: Inhibition of thrombin-induced aggregation in washed rabbit platelets. It counts as cell-based. To be noted: washed rabbit platelets, mean ± SD; for IC50: read-out: IC50 (μM) towards Thrombin in WRPs. Here is the method: (§1) The biological experiments of PAF-induced platelet aggregation as well as the evaluation of the inhibitory effect of its synthetic compounds were performed according to thoroughly described protocols. The inhibitory effect of the starting materials (pqx = 2-(2′-pyridyl)quinoxaline, CrCl3 × 3H2O, MnCl2 × 4H2O, FeCl2 × 4H2O, CoCl2 × 6H2O, NiCl2 × 6H2O, CuCl2 × 2H2O, ZnCl2) and of the coordination compounds 1–7, towards PAF and thrombin related biological activities (aggregation experiments) in washed rabbit platelets (WRPs) was carried out according to previously described protocols. Briefly, in order to obtain the washed rabbit platelets (WRPs), platelet-rich plasma was washed on Ficoll–Paque cushions and adjusted to […] platelets/mL of Tyrode’s buffer, pH 7.2. The dilution of PAF was prepared using pyrogen-free 0.15 M NaCl containing 2.5 mg/mL of crystallized bovine serum albumin, required for dispersion of PAF. The compounds under investigation were firstly dissolved in the appropriate solvent that is: DMSO for pqx (0.010 M), H2O for CrCl3 × 3H2O (0.016 M), H2O for MnCl2 × 4H2O (0.004 M), DMSO-EtOH (4/1, v/v)) for FeCl2 × 4H2O (0.014 M), H2O for CoCl2 × 6H2O (0.010 M), H2O for NiCl2 × 6H2O (0.010 M), H2O for CuCl2 × 2H2O (0.008 M), H2O for ZnCl2 (0.013 M), DMSO for 1 (0.017 M), DMSO for 2 (0.010 M0, DMSO for 3 (0.004 M), DMSO for 4 (0.002 M), DMSO for 5 (0.003 M), DMSO-EtOH-H2O (25/1/1, v/v)) for 6 (0.006 M), DMSO for 7 (0.002 M) and aliquots of these solutions were then added in solutions (2.5 mg BSA/mL) of saline.
The experiment on the inhibitory effect of each compound of interest against the washed rabbit platelets (WRPs) aggregation was carried out as per the already described method. The platelets were from male New Zealand white rabbits (about 20), individually housed in stainless steel cages in an air-conditioned room (19 ± 1 °C, 55 ± 5% humidity on a 12/12 h artificial light/dark cycle). Blood samples were drawn from the main ear artery. Microliters of PAF in a final concentration of about 10^–10 M were added to the cuvette of the aggregometer, and the height of the platelet aggregation was monitored. The platelet aggregation induced by PAF, or thrombin was measured before (considered as 0% inhibition) and after the addition of various concentrations of the examined sample, creating a linear curve of percentage inhibition (ranging from 0 to 100%) versus different concentrations of the sample. From this curve, the concentration of the sample that inhibited 50% PAF-induced aggregation was calculated, and this value was defined as IC50 (Inhibitory concentration for 50% Inhibition). Dithiothreitol-insensitive PAF choline phosphotransferase, lyso-PAF:acetyl-CoA acetyltransferase and PAF-acetylhydrolase activity assays were performed on the homogenates of rabbit leukocytes while the activity of lipoprotein-associated phospholipase A2 was assessed on plasma as previously described. The experiments were performed in a model 400 vs. aggregometer of Chrono-Log (Havertown, PA, USA) coupled to a Chrono-Log recorder at 37 °C with constant stirring at 1200 rpm. The separation of platelets was performed with centrifugations in a 3L-R Heraeus Labofuge (Hvanau, Germany), a 400R Heraeus Labofuge and an RC-5B Sorvall (Newtown, CT, USA) refrigerated super speed centrifuge. Bovine serum albumin (BSA), PAF and analytical solvents for the biological assays were purchased from Sigma. Standard active thrombin was purchased from Sigma, St. Lewis, MO, USA. The measurements were performed in duplicates for each sample concentration in three different WRP preparations, in order to ensure reproducibility. All experiments were also followed by appropriate control tests of the solvent used (saline solution of BSA, DMSO aliquots in a saline solution of BSA-2.5 mg BSA/mL saline- or just in saline), in WRPs. […]

In test [3] the test system is PAF-induced aggregation in washed rabbit platelets (WRPs). Briefly: Inhibition of PAF-induced aggregation in washed rabbit platelets. The format is cell-based. To be noted: washed rabbit platelets; mean ± SD; read-out: IC50 (μM) towards PAF in WRPs. The method, then:
as §1, with “The inhibitory effect of the starting materials (pqx = 2-(2′-pyridyl)quinoxaline, CrCl3 × 3H2O, MnCl2 × 4H2O, FeCl2 × 4H2O, CoCl2 × 6H2O, NiCl2 × 6H2O, CuCl2 × 2H2O, ZnCl2) and of the coordination compounds 1–7, towards PAF and thrombin related biological activities (aggregation experiments) in washed rabbit platelets (WRPs) was carried out according to previously described protocols.” left out
The experiment on the inhibitory effect of each compound of interest against the washed rabbit platelets (WRPs) aggregation was carried out as per the already described method. The platelets were from male New Zealand white rabbits (about 20), individually housed in stainless steel cages in an air-conditioned room (19 ± 1 °C, 55 ± 5% humidity on a 12/12 h artificial light/dark cycle). Blood samples were drawn from the main ear artery. Microliters of PAF in a final concentration of about 10^–10 M were added to the cuvette of the aggregometer, and the height of the platelet aggregation was monitored. The platelet aggregation induced by PAF, or thrombin was measured before (considered as 0% inhibition) and after the addition of various concentrations of the examined sample, creating a linear curve of percentage inhibition (ranging from 0 to 100%) versus different concentrations of the sample. From this curve, the concentration of the sample that inhibited 50% PAF-induced aggregation was calculated, and this value was defined as IC50 (Inhibitory concentration for 50% Inhibition). Dithiothreitol-insensitive PAF choline phosphotransferase, lyso-PAF:acetyl-CoA acetyltransferase and PAF-acetylhydrolase activity assays were performed on the homogenates of rabbit leukocytes while the activity of lipoprotein-associated phospholipase A2 was assessed on plasma as previously described. The experiments were performed in a model 400 vs. aggregometer of Chrono-Log (Havertown, PA, USA) coupled to a Chrono-Log recorder at 37 °C with constant stirring at 1200 rpm. The separation of platelets was performed with centrifugations in a 3L-R Heraeus Labofuge (Hvanau, Germany), a 400R Heraeus Labofuge and an RC-5B Sorvall (Newtown, CT, USA) refrigerated super speed centrifuge. Bovine serum albumin (BSA), PAF and analytical solvents for the biological assays were purchased from Sigma. […] The measurements were performed in duplicates for each sample concentration in three different WRP preparations, in order to ensure reproducibility. All experiments were also followed by appropriate control tests of the solvent used (saline solution of BSA, DMSO aliquots in a saline solution of BSA-2.5 mg BSA/mL saline- or just in saline), in WRPs. In the aggregometer cuvette (250 to 500 μL) the overall amount of added DMSO, contained in the solution of the sample under study, is not higher than 2–3 μL. All results were expressed as mean ± standard deviation (SD). The t-test was employed to assess differences among the IC50 values of each metal complex against either the PAF- or thrombin-induced aggregation. Differences were statistically significant when the statistical p-value was smaller than 0.05.

Test [4] deals with HEK293T (human embryonic kidney cells). Briefly: MTT cell viability assay, HEK293T. The format is cell-based. To be noted: 48 h exposure, mean ± SD. The method, then: (§2) In this report, cell viability tests were conducted in HEK293T and HeLa cancer cells by means of the colorimetric 3-(4,5-dimethylthiazol-2-yl)-2,5-diphenyl tetrazolium bromide (MTT) assay after exposure for 48 h. A HeLa cancer cell line was selected since it is widely used in cytotoxicity studies. For all complexes, a 10 mM stock solution in DMSO (H2O for cisplatin) was prepared and diluted appropriately to reach the final concentration reported in the Materials and Methods. The non-cancerous HEK293T cell line was used for comparison. The IC50 values of the first-row metal complexes, the pqx ligand and cisplatin, presented herein were calculated using a dose-response model, which was obtained from sigmoidal fitting of dose-response curves.
(§3) The HEK293T cell line (immortalized human embryonic kidney cells) was obtained from the Biomedical Research Foundation Academy of Athens (BRFAA), Athens, Greece and the HeLa cell line (cervical cancer cells) was obtained from the National Centre For Scientific Research Demokritos (NCSR Demokritos), Athens, Greece.
(§4) Pqx metal complexes were diluted in stock solutions of 10 mM in dimethyl sulfoxide (DMSO). A similar concentration of cisplatin dissolved in H2O was used. HEK293T and HeLa cells were cultured in Dulbecco’s modified Eagle’s medium (DMEM) with high glucose (Biosera, Nuaille, France) supplemented with 10% fetal bovine serum at 37 °C and 5% CO2. Cells were seeded in sterile tissue culture 96-well plates (SPL Life Science, Pochon, Republic of Korea) at a density of 3000 cells per well. After 24 h, the medium was removed and replaced with fresh media containing various concentrations (0.01 μΜ, 0.1 μΜ, 1 μΜ, 10 μΜ, 25 μΜ, 40 μΜ, 55 μΜ, 70 μΜ, 85 μΜ and 100 μΜ) of the compounds to be tested and was further incubated for 48 h at 37 °C. Dimethyl sulfoxide (DMSO) was used as a vehicle at ≤1%. To measure cytotoxicity, a culture medium containing the compounds (or DMSO) was removed, and 100 μL of 0.5 mg/mL MTT reagent (Applichem, Darmstadt, Germany) diluted in DMEM was added to the cells for 3 h at 37 °C. After 3 h incubation in identical conditions, MTT was removed and 200 μL of DMSO was added. Absorbance values of formazan were measured at 540 nm using a BioTek Synergy H1 microplate reader (Agilent, Santa Clara, CA, USA). All compounds were tested in triplicate. The results were statistically analyzed using the nonlinear regression by GraphPad PRISM (Version 9).
For orientation: Tetrazolium dyes change colour on reduction, which living cells bring about.

In test [5] the test system is HeLa cells (cervical cancer cells). Briefly: MTT cell viability assay, HeLa. The format is cell-based, human. To be noted: 48 h exposure, mean ± SD. The method, then:
as §2, §3, §4

Test [6] deals with thrombin-induced aggregation in washed rabbit platelets (WRPs). To be noted: cited from earlier work.
[7] abbreviates: known PAF antagonists quoted for comparison, read-out: IC50 against the PAF-induced aggregation in WRPs.
Where [8] appears, read: earlier pqx complexes, ref [17],[25], read-out: IC50 against the PAF-induced aggregation.

Entries after “also recorded” stand apart in the source; their conditions may differ. Like-named read-outs stand apart in the source and are kept apart here.

One may read the IC50 as the point on the concentration scale where inhibition reaches its midpoint. As to `C[C@@H]1C(=O)O[C@H]2C[C@@]34[C@H]5C[C@@H](C(C)(C)C)[C@]36[C@@H](OC(=O)[C@@H]6O)O[C@@]4(C(=O)O5)[C@]21O` [BN 52020], in test [1] (setting [7]), the IC50 is 3.6 µM.
With `CC1C(=O)OC2C(O)C34C5CC(C(C)(C)C)C36C(OC(=O)C6O)OC4(C(=O)O5)C12O` (stereo not shown) [BN 52021], the IC50 in test [1] (setting [7]) was 9.7 µM.
Turning to `O.O.O.O.O.O.[Cl-].[Cl-].[Co+2]` [CoCl2 × 6H2O], the “IC50 (μM) towards Thrombin in WRPs” value in test [2] is listed as “no inhibition”. Moreover, in test [1] (washed rabbit platelets, ref [60]), the “IC50 (μM) towards PAF in WRPs” value was “negligible effects; also recorded: no inhibition ^1”.
With `[Cl][Cr]([Cl])[Cl]` [CrCl3 × 6H2O, reference compound], the IC50 was 537 ± 59 µM in test [3] and 611 ± 67 µM in test [2].
The corresponding values for `[Cl][Cu][Cl]` [CuCl2 × 2H2O, reference compound] are 22 ± 3 µM and 3.23 ± 0.39 µM.
For the compound `[Cl][Fe][Cl]` [FeCl2 × 4H2O, reference compound], the IC50 is 261 ± 37 µM in test [3] and 13.8 ± 1.93 µM in test [2].
The corresponding values for `[Cl][Mn][Cl]` [MnCl2 × 4H2O, reference compound] are 302 ± 30 µM and 466 ± 47 µM.
The like results for `[Cl][Ni][Cl]` [NiCl2 × 6H2O, reference compound] were, in that order, 30 ± 2.7 µM and 4.9 ± 0.44 µM.
As to `[Cl-].[Cl-].[Zn+2]` [ZnCl2, reference compound], the IC50 was 30 ± 3 µM in test [3] and 41.4 ± 3.7 µM in test [2].
As for `N.N.[Cl][Pt][Cl]` [cisplatin, reference compound], the IC50 is 4.44 ± 1.29 µM in test [4]; 12.8 ± 1.48 µM in test [5]; 0.55 µM in test [1] (ref [25], read-out: IC50 against PAF).
Consider `Cc1cncc(CN2CCC(=C3c4ccc(Cl)cc4CCc4cccnc43)CC2)c1` [rupatadine], for which, in test [1] (setting [7]), the IC50 is 0.25 µM.
Take [Rh(cod)(pqx)]Cl: the IC50 in test [1] (setting [8]) is 0.015 µM.
[Ru(dcbpyH2)2 (pqx))](NO3)2: the IC50 in test [1] (setting [8]) is 0.18 µM. The “activity against thrombin” value in test [6] (known Ru(II)-pqx complex, ref [17]) was “inactive”.
In the case of cis-[Ru(bpy)2(dcbpyH2)](PF6)2, the IC50 in test [6] (Ru(II) thrombin inhibitors, ref [30], read-out: IC50 against thrombin) is 4.5 µM.
On to mer-[Rh(pqx)Cl3(MeOH)], for which the 50% inhibitory concentration (IC50) in test [1] (setting [8]) was 0.125 µM.
